Measured values taken from patent US7794967B2, “Method and kit for detection of novel pathogen inhibitors” (priority 2001, dated 2010).
Where two headings read alike, the source gives them in different places. Blank lines part the entries; values can stand above or below the compound they belong to.

What was measured:
[1] = biological target: 31-mer RNA representing the P15-loop of RNase P RNA; test: Inhibition of Pb2+-induced cleavage of the 31-mer model RNA (P15-loop); format: binding, Escherichia coli; details: aminoglycoside concentration that gives 50% inhibition of Pb2+-induced cleavage; read-out: appKi 31-mer RNA
[2] = biological target: T1, HIV reverse transcriptase (Human immunodeficiency virus type 1 group M subtype B, UniProt P04585); test: In vitro inhibition of HIV reverse transcriptase; format: biochemical; details: addition of 0.1-5 mM neomycin B
T1 construct: HIV reverse transcriptase
Excerpt: (§1) The mechanisms behind toxicity and severe side-effects are not understood and several potential causes have been discussed in the literature.

[3] = biological target: bacterial RNase H (Escherichia coli, UniProt P0A7Y4); test: In vitro inhibition of bacterial RNase H; format: biochemical; details: addition of 0.1-5 mM neomycin B
Excerpt: as §1

[4] = biological target: RNase P RNA; details: values marked *, from Mikkelsen et al., 1999; read-out: appKi inhibition of RNase P RNA cleavage; cited from earlier work
[5] = biological target: mammalian poly(A) polymerase (Homo sapiens, UniProt P51003); test: In vitro inhibition of mammalian poly(A) polymerase; format: biochemical; details: addition of 0.1-5 mM neomycin B
Excerpt: as §1

[6] = tested on: Full-size E. coli RNase P RNA; details: Mikkelsen et al., 1999; cited from earlier work
[7] = biological target: T7 RNA polymerase (Escherichia phage T7, UniProt P00573); test: In vitro inhibition of T7 RNA polymerase; format: biochemical; details: addition of 0.1-5 mM neomycin B
Excerpt: as §1

[8] = biological target: Escherichia coli Klenow polymerase (pol) (Escherichia coli, UniProt P00582, D355A/E357A); test: Inhibition of Klenow polymerase activity
[9] = biological target: T2, mammalian poly(A)-specific ribonuclease (PARN) (Bos taurus, UniProt P69341); test: Inhibition of PARN deadenylation activity; format: biochemical, calf thymus; details: for IC50: appKi = aminoglycoside concentration resulting in 50% inhibition of PARN activity, pH 7.0
T2 sequence (P69341 1-430 limits assumed): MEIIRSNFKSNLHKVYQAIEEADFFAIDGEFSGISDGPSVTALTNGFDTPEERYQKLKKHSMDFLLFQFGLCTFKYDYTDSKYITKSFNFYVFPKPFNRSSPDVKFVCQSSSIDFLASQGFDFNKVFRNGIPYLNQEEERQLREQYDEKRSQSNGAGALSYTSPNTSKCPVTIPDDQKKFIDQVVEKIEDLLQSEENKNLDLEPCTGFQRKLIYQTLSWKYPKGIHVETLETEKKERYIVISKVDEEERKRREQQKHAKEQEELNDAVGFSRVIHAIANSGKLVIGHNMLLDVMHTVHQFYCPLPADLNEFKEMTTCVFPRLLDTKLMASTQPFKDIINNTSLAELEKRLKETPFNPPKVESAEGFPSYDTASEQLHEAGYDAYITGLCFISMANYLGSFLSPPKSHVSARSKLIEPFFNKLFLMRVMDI
Excerpt: Homogeneously purified calf thymus PARN 54 kDa active fragment was used as the source of PARN (Martinez et al. 2000). Recombinant full length human PARN was expressed and purified as described (Martinez et al. 2000). As the substrate we used L3(A30) RNA radioactively labelled in its poly(Å) tail (Åström et al. 1991). Assay conditions and 1-D TLC quantitation procedures were as previously described (Åström et al. 1992). The pH of the deadenylation reactions were 7.0, unless stated otherwise. The consumption of L3(A30) RNA substrate was controlled so that no more than 20% of it was consumed.

[10] = biological target: Taq DNA polymerase (Thermus aquaticus, UniProt P19821); test: In vitro inhibition of Taq DNA polymerase; format: biochemical; details: addition of 0.1-5 mM neomycin B
Excerpt: as §1

[11] = tested on: Klenow pol; test: Fe(II) mediated hydroxyl radical cleavage of Klenow pol; format: binding, Escherichia coli
Experimental: 2-4 microgram of purified recombinant Klenow pol fragment or mutant thereof, dialysed against buffer F (20 mM HEPES-KOH pH 7.0, 5 mM NaCl) on a Milipore “V” Series Membrane (Millipore) for 30 minutes at 4° C., was incubated for 30 minutes at 37° C. in 50 mM HEPES pH 7.0, 5 mM NaCl, 20 micromolar Fe(NH4)2SO4 and 10 mM DTT in total volume of 10 microliter. The incubations were stopped by the addition of 10 microliter of 2×SDS-loading buffer (100 mM Tris-HCl pH 6.8, 2% (w/v) SDS, 200 mM DTT, 16%(v/v) glycerol, 0.05%(w/v) bromolphenol blue and 50 mM EDTA). The amount of added Mg(II)-ions, Mn(II)-ions or aminoglycoside was as indicated. Reacted polypeptides were fractionated by 10% SDS-polyacrylamide gel electrophoresis and subsequently visualised by silver staining.

[12] = biological target: T3, PARN (Homo sapiens, UniProt O95453); test: Fe(II) mediated hydroxyl radical cleavage of PARN; format: binding
T3 construct: Recombinant full length human PARN was expressed and purified as described; made in house; host or cells: E. coli
T3 sequence (O95453 1-639): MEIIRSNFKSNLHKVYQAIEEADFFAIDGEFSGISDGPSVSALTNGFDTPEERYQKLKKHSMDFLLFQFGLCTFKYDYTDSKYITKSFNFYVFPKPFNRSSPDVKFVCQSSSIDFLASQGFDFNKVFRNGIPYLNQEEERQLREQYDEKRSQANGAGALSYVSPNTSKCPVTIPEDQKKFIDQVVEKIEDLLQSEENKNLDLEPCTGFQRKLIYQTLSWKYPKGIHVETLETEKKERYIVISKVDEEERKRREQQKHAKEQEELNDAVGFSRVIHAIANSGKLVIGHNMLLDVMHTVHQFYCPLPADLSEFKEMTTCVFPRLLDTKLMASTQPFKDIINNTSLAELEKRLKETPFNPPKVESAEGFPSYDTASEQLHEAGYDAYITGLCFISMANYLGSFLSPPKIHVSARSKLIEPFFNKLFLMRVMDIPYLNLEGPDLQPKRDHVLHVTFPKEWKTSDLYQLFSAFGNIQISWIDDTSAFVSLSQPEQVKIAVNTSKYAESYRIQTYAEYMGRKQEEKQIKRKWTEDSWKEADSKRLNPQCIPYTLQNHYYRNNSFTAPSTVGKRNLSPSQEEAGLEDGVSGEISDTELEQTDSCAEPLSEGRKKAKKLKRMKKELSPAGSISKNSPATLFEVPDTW
Experimental: Recombinant PARN polypeptides expressed in E. coli were purified and radioactively labelled in their N-termini. Fe(II) mediated hydroxyl radical cleavage, of PARN was essentially performed as described above. Reacted samples were subjected to 10% SDS-polyacrylamide gel electrophoresis and the resulting gel was subsequently visualized and quantified using a 400 S PhosphorImager (Molecular Dynamics). In the Mg(II) and Mn(II) ions competition experiments, MgCl2 or MnCl2 was added at indicated concentration in the presence of 20 micromolar Fe(NH4)2SO4.

[13] = biological target: Bam HI restriction enzyme (Bacillus amyloliquefaciens, UniProt P23940); test: In vitro inhibition of Bam HI restriction enzyme; format: biochemical; details: addition of 0.1-5 mM neomycin B
Excerpt: as §1

[14] = biological target: RNase P RNA; test: Inhibition of RNase P RNA cleavage; format: biochemical, Escherichia coli; details: value without asterisk; read-out: appKi inhibition of RNase P RNA cleavage
Experimental: The structure of some aminoglycosides that inhibit RNase P cleavage are depicted in FIG. 3. Aminoglycosides bind to RNA and displace functionally important divalent metal ions. Thus, aminoglycosides function as metal mimics (Mikkelsen et al., 2001).
RNase P cleavage and Pb2+-induced cleavage was performed and monitored according to standard protocols as described by Kufel and Kirsebom (1998). To determine the appKi value for a given substance RNase P cleavage or Pb2+-induced cleavage conditions were adjusted in such a way that measurements were carried out in the linear portion of the curve of kinetics of the cleavage reaction.

[15] = read-out: appKi (for KL pol), […], pH 7.0

Escherichia coli Klenow polymerase (pol), sequence (P00582 324-928 D355A/E357A): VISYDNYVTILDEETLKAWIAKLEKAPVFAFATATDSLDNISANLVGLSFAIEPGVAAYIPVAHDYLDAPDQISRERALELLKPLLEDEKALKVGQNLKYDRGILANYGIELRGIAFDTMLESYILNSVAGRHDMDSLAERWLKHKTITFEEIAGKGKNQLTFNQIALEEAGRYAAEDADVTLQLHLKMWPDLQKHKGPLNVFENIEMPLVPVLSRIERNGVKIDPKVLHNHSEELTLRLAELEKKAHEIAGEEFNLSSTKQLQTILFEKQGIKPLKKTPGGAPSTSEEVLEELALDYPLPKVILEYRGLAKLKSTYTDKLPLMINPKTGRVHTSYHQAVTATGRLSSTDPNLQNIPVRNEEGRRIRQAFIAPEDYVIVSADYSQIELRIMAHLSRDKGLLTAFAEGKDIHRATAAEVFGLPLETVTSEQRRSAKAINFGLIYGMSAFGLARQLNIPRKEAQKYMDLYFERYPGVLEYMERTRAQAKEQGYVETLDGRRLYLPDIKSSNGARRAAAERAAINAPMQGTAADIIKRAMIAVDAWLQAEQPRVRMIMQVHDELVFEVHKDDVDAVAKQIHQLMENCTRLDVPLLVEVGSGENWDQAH
Taq DNA polymerase, sequence (P19821 whole entry): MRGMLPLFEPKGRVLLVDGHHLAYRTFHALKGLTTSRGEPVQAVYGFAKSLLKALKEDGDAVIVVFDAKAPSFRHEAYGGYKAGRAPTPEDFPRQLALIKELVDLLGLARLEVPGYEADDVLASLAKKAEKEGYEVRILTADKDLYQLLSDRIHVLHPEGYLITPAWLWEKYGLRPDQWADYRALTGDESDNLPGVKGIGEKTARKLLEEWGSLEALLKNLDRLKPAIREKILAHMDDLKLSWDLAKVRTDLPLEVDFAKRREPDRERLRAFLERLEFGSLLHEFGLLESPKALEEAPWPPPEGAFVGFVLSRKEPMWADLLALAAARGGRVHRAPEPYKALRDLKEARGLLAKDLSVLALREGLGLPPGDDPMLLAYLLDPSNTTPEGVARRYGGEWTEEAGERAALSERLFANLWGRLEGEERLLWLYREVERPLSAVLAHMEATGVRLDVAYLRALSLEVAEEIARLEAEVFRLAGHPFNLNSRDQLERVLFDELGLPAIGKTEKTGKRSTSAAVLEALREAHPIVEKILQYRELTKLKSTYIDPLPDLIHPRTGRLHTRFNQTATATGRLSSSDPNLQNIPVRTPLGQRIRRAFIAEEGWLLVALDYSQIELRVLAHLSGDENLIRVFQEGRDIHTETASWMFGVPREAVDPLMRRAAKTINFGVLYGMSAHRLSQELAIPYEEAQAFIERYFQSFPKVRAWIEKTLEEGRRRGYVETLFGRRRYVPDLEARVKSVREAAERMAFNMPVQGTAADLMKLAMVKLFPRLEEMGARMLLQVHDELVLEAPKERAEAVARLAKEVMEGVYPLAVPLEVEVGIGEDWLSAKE
bacterial RNase H, sequence (P0A7Y4 whole entry): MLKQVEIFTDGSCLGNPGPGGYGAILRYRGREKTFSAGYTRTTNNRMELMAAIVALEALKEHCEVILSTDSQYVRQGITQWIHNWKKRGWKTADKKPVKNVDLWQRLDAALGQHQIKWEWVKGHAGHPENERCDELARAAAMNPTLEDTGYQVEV
mammalian poly(A) polymerase, sequence (P51003 whole entry): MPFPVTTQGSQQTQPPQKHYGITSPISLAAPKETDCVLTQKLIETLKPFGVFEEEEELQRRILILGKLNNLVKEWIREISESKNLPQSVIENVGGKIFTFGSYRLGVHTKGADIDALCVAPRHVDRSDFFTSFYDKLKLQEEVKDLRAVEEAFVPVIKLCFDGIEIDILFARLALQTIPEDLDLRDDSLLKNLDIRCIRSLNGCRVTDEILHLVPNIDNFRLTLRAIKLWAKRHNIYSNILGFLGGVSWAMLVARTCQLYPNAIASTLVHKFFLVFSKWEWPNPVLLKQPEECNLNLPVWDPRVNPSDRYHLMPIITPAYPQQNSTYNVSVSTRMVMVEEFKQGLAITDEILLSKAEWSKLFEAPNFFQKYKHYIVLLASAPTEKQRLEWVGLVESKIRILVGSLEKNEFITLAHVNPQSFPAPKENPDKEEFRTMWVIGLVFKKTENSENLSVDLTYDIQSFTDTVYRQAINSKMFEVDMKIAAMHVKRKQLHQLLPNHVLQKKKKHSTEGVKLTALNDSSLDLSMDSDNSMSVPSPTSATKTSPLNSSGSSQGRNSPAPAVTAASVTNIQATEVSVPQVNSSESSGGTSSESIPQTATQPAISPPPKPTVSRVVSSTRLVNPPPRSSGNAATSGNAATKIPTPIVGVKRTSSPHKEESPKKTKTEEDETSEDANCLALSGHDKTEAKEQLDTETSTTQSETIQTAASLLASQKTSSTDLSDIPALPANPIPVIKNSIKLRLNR
T7 RNA polymerase, sequence (P00573 whole entry): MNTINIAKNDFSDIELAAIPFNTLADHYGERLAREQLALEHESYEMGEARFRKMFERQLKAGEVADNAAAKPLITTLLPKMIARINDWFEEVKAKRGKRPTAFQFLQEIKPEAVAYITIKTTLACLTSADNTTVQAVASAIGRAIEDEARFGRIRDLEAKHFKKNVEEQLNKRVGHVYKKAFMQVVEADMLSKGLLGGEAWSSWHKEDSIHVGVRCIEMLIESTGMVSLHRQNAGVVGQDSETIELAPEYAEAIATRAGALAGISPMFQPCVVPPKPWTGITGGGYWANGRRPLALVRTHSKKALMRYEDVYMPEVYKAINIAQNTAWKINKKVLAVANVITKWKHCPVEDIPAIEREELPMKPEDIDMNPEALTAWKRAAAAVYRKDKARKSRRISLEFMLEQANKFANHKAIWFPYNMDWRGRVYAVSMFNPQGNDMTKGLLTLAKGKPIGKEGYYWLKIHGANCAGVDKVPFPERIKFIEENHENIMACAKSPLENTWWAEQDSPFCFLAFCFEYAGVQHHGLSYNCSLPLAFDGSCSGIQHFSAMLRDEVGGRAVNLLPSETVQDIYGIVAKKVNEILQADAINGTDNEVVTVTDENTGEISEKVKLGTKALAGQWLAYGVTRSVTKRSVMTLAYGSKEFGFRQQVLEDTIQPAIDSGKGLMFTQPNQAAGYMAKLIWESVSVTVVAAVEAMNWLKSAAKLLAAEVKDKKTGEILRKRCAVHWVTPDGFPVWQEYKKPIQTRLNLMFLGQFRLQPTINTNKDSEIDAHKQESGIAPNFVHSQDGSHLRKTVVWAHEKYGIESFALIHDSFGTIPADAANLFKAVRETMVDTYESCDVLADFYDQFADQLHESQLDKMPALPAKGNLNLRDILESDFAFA
Bam HI restriction enzyme, sequence (P23940 whole entry): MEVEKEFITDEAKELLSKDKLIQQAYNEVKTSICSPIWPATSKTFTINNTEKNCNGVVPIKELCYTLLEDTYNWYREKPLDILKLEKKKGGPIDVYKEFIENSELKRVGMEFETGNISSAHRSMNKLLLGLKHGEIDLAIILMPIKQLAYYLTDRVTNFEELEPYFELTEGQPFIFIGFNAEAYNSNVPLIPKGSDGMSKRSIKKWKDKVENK

Compound: NC[C@@H]1O[C@H](O[C@H]2[C@@H](O)[C@H](O[C@@H]3[C@@H](O)[C@H](N)C[C@H](N)[C@H]3O[C@H]3O[C@H](CN)[C@@H](O)[C@H](O)[C@H]3N)O[C@@H]2CO)[C@H](N)[C@@H](O)[C@@H]1O [Neomycin B]
- IC50 [1]: 40 µM
- inhibition of HIV reverse transcriptase [2]: can be inhibited
- inhibition of bacterial RNase H [3]: can be inhibited
- IC50 [4]: 35 ± 12 µM
- inhibition of mammalian poly(A) polymerase [5]: can be inhibited
- inhibition of Pb2+-induced cleavage of E. coli RNase P RNA [6]: inhibited
- inhibition of T7 RNA polymerase [7]: can be inhibited
- mode of inhibition (enzyme kinetic analyses) ([8]; Klenow pol): mixed non-competitive inhibitor
- pH dependence of inhibition ([8]; Klenow pol): pH dependent
- IC50 [8, 15]: 4800 ± 300 µM
- mode of inhibition (enzyme kinetic analyses) ([9]; PARN): mixed non-competitive inhibitor
- pH dependence of inhibition ([9]; PARN): pH dependent
- IC50 [9]: 0.4 ± 0.1 µM
- inhibition of Taq DNA polymerase [10]: can be inhibited
- effect on iron mediated cleavage at the active site [11]: interfered with iron mediated cleavage
- effect on iron mediated cleavage at the active site [12]: interfered with iron mediated cleavage
- inhibition of Bam HI restriction enzyme [13]: can be inhibited

Compound: NC[C@@H]1O[C@H](O[C@H]2[C@@H](O)[C@H](O[C@@H]3[C@@H](O)[C@H](N)C[C@H](N)[C@H]3O[C@H]3O[C@H](CO)[C@@H](O)[C@H](O)[C@H]3N)O[C@@H]2CO)[C@H](N)[C@@H](O)[C@@H]1O [Paromomycin]
- IC50 [1]: 340 µM
- IC50 [4]: 190 ± 12 µM
- IC50 [8]: 10300 ± 800 µM
- IC50 [9]: 17.3 ± 3.5 µM

Compound: NC[C@H]1O[C@H](O[C@H]2[C@H](O)[C@@H](O[C@H]3O[C@H](CO)[C@@H](O)[C@H](N)[C@H]3O)[C@H](N)C[C@@H]2N)[C@H](N)C[C@@H]1O [Tobramycin]
- IC50 [8]: 9300 ± 700 µM
- IC50 [9]: 7.1 ± 0.2 µM

- IC50 [1]: 1.2 µM
- IC50 [14]: ~3 µM
Compound: CN[C@@H]1[C@@H](O)[C@@H](O[C@@H]2[C@H](O)[C@H](O[C@H]3OC(CN)=CC[C@H]3N)[C@@H](N)C[C@H]2N)OC[C@]1(C)O [5-epi-Sisomicin]

Compound: NC[C@H]1O[C@H](O[C@H]2[C@H](O)[C@@H](O[C@H]3O[C@H](CO)[C@@H](O)[C@H](N)[C@H]3O)[C@H](N)C[C@@H]2N)[C@H](N)[C@@H](O)[C@@H]1O [Kanamycin B]
- IC50 [8, 15]: 9200 ± 300 µM
- IC50 [9]: 7.3 ± 0.4 µM

- IC50 [1]: 17 µM
Compound: CN[C@@H]1[C@@H](O)[C@@H](O[C@@H]2[C@@H](O)[C@H](O[C@H]3OC(CN)=CC[C@H]3N)[C@@H](N)C[C@H]2N)OC[C@]1(C)O [Sisomicin]

Compound: NC[C@@H]1O[C@H](O[C@H]2[C@@H](O)[C@H](O[C@@H]3[C@@H](O)[C@H](N)C[C@H](N)[C@H]3O[C@H]3O[C@H](CO)[C@@H](O)C[C@H]3N)O[C@@H]2CO)[C@H](N)[C@@H](O)[C@@H]1O[C@H]1O[C@H](CO)[C@@H](O)[C@H](O)[C@@H]1O [Lividomycin]
- IC50 [8]: 11600 ± 2000 µM
- IC50 [9]: 18.7 ± 2.8 µM

Compound: NC[C@H]1O[C@H](O[C@H]2[C@H](O)[C@@H](O[C@H]3O[C@H](CO)[C@@H](O)[C@H](N)[C@H]3O)[C@H](N)C[C@@H]2N)[C@H](O)[C@@H](O)[C@@H]1O [Kanamycin A]
- IC50 [8, 15]: 14300 ± 1700 µM
